The values below come from PubChem BioAssay (NCI).

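Each compound was tested at five concentrations against cells in 96-well plates for 48 hours. The concentration for full growth arrest is given as TGI.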 Some results are limits rather than exact numbers.

The test system of one assay is SNB-75 CNS. Kind of assay: NCI tumour cell line growth inhibition, 48 h.
Take `CCCCN(CC)c1nc(C)nc2c1c(C)c(C)n2-c1c(C)cc(C)cc1C`: the TGI was found to be 27.4 µM.

On to `CO[C@@H](C(=O)OC1C=CC2(CC1)C(=O)N(C)c1ccccc12)c1ccccc1` (some centres not stated), for which the TGI is over 100 µM.

A further assay deals with SF-268 CNS. Kind of assay: NCI tumour cell line growth inhibition, 48 h.
For `CCCCN(CC)c1nc(C)nc2c1c(C)c(C)n2-c1c(C)cc(C)cc1C`, the TGI worked out at 31.8 µM.

Turning to `CC1C(c2cc(C(C)(C)C)c(O)c(C(C)(C)C)c2)c2cc3c(cc2OC1N1CCOCC1)OCO3` (configuration not stated), the TGI is 77.3 µM.

As for `N#Cc1c(N)[nH]c(=S)c(C#N)c1-c1cccc(Cl)c1`, the TGI is 56.1 µM.

The test system of the next assay is KM12 colon. Kind of assay: NCI tumour cell line growth inhibition, 48 h.
Molecule `CCCCN(CC)c1nc(C)nc2c1c(C)c(C)n2-c1c(C)cc(C)cc1C` gave a TGI of 36.3 µM.

For `CC1C(c2cc(C(C)(C)C)c(O)c(C(C)(C)C)c2)c2cc3c(cc2OC1N1CCOCC1)OCO3` (configuration not stated), the TGI is over 100 µM.

`N#Cc1c(N)[nH]c(=S)c(C#N)c1-c1cccc(Cl)c1` gave a TGI of over 100 µM.

Consider `CO[C@@H](C(=O)OC1C=CC2(CC1)C(=O)N(C)c1ccccc12)c1ccccc1` (some centres not stated), for which the TGI is over 100 µM.

Another assay deals with NCI/ADR-RES ovarian. Kind of assay: NCI tumour cell line growth inhibition, 48 h.
In turn, `CCCCN(CC)c1nc(C)nc2c1c(C)c(C)n2-c1c(C)cc(C)cc1C` showed a TGI of 27.6 µM.

Molecule `CC1C(c2cc(C(C)(C)C)c(O)c(C(C)(C)C)c2)c2cc3c(cc2OC1N1CCOCC1)OCO3` (configuration not stated) showed a TGI of 87.4 µM.

As to `N#Cc1c(N)[nH]c(=S)c(C#N)c1-c1cccc(Cl)c1`, the TGI is over 100 µM.

With `CO[C@@H](C(=O)OC1C=CC2(CC1)C(=O)N(C)c1ccccc12)c1ccccc1` (some centres not stated), the TGI was over 100 µM.

In the next assay the test system is SF-295 CNS. Briefly: NCI tumour cell line growth inhibition, 48 h.
The molecule `CCCCN(CC)c1nc(C)nc2c1c(C)c(C)n2-c1c(C)cc(C)cc1C` showed a TGI of 28 µM.

`CC1C(c2cc(C(C)(C)C)c(O)c(C(C)(C)C)c2)c2cc3c(cc2OC1N1CCOCC1)OCO3` (configuration not stated) displayed a TGI of 32.1 µM.

Molecule `N#Cc1c(N)[nH]c(=S)c(C#N)c1-c1cccc(Cl)c1` had a TGI of over 100 µM.

Take `CO[C@@H](C(=O)OC1C=CC2(CC1)C(=O)N(C)c1ccccc12)c1ccccc1` (some centres not stated): the TGI was over 100 µM.

Another assay has as its system UO-31 renal. Briefly: NCI tumour cell line growth inhibition, 48 h.
Take `CCCCN(CC)c1nc(C)nc2c1c(C)c(C)n2-c1c(C)cc(C)cc1C`: the TGI stood at 28.9 µM.

The molecule `CC1C(c2cc(C(C)(C)C)c(O)c(C(C)(C)C)c2)c2cc3c(cc2OC1N1CCOCC1)OCO3` (configuration not stated) came in with a TGI of 29.8 µM.

Molecule `N#Cc1c(N)[nH]c(=S)c(C#N)c1-c1cccc(Cl)c1` had a TGI of over 100 µM.

In the case of `CO[C@@H](C(=O)OC1C=CC2(CC1)C(=O)N(C)c1ccccc12)c1ccccc1` (some centres not stated), the TGI was over 100 µM.

The next assay has as its system U251 CNS. Briefly: NCI tumour cell line growth inhibition, 48 h.
In the case of `CCCCN(CC)c1nc(C)nc2c1c(C)c(C)n2-c1c(C)cc(C)cc1C`, the TGI amounted to 23.9 µM.

`N#Cc1c(N)[nH]c(=S)c(C#N)c1-c1cccc(Cl)c1` came in with a TGI of over 100 µM.

In turn, `CO[C@@H](C(=O)OC1C=CC2(CC1)C(=O)N(C)c1ccccc12)c1ccccc1` (some centres not stated) gave a TGI of over 100 µM.

Another assay deals with SK-MEL-2 melanoma. Kind of assay: NCI tumour cell line growth inhibition, 48 h.
Regarding `CCCCN(CC)c1nc(C)nc2c1c(C)c(C)n2-c1c(C)cc(C)cc1C`, the TGI amounted to 25.7 µM.

`CC1C(c2cc(C(C)(C)C)c(O)c(C(C)(C)C)c2)c2cc3c(cc2OC1N1CCOCC1)OCO3` (configuration not stated): the TGI stood at 67.3 µM.

In the case of `N#Cc1c(N)[nH]c(=S)c(C#N)c1-c1cccc(Cl)c1`, the TGI is 56.6 µM.

`CO[C@@H](C(=O)OC1C=CC2(CC1)C(=O)N(C)c1ccccc12)c1ccccc1` (some centres not stated) registered a TGI of over 100 µM.

In the next assay the test system is OVCAR-4 ovarian. Kind of assay: NCI tumour cell line growth inhibition, 48 h.
`CCCCN(CC)c1nc(C)nc2c1c(C)c(C)n2-c1c(C)cc(C)cc1C`: the TGI worked out at 37.9 µM.

In turn, `N#Cc1c(N)[nH]c(=S)c(C#N)c1-c1cccc(Cl)c1` had a TGI of over 100 µM.

The molecule `CO[C@@H](C(=O)OC1C=CC2(CC1)C(=O)N(C)c1ccccc12)c1ccccc1` (some centres not stated) yielded a TGI of over 100 µM.

The test system of a further assay is NCI-H23 lung. Briefly: NCI tumour cell line growth inhibition, 48 h.
Molecule `CCCCN(CC)c1nc(C)nc2c1c(C)c(C)n2-c1c(C)cc(C)cc1C` yielded a TGI of 28.2 µM.

Molecule `CC1C(c2cc(C(C)(C)C)c(O)c(C(C)(C)C)c2)c2cc3c(cc2OC1N1CCOCC1)OCO3` (configuration not stated) registered a TGI of 94.9 µM.

As to `N#Cc1c(N)[nH]c(=S)c(C#N)c1-c1cccc(Cl)c1`, the TGI was over 100 µM.

Consider `CO[C@@H](C(=O)OC1C=CC2(CC1)C(=O)N(C)c1ccccc12)c1ccccc1` (some centres not stated), for which the TGI was over 100 µM.

In the next assay the test system is HCC-2998 colon. Briefly: NCI tumour cell line growth inhibition, 48 h.
`CC1C(c2cc(C(C)(C)C)c(O)c(C(C)(C)C)c2)c2cc3c(cc2OC1N1CCOCC1)OCO3` (configuration not stated) gave a TGI of 33.4 µM.

In turn, `N#Cc1c(N)[nH]c(=S)c(C#N)c1-c1cccc(Cl)c1` registered a TGI of 35.6 µM.

Molecule `CO[C@@H](C(=O)OC1C=CC2(CC1)C(=O)N(C)c1ccccc12)c1ccccc1` (some centres not stated) displayed a TGI of over 100 µM.

For the next assay, the system named is SN12C renal. Briefly: NCI tumour cell line growth inhibition, 48 h.
In turn, `CCCCN(CC)c1nc(C)nc2c1c(C)c(C)n2-c1c(C)cc(C)cc1C` displayed a TGI of 40.9 µM.

The molecule `CC1C(c2cc(C(C)(C)C)c(O)c(C(C)(C)C)c2)c2cc3c(cc2OC1N1CCOCC1)OCO3` (configuration not stated) gave a TGI of over 100 µM.

Consider `N#Cc1c(N)[nH]c(=S)c(C#N)c1-c1cccc(Cl)c1`, for which the TGI was 56.3 µM.

`CO[C@@H](C(=O)OC1C=CC2(CC1)C(=O)N(C)c1ccccc12)c1ccccc1` (some centres not stated) came in with a TGI of over 100 µM.

The test system of the next assay is BT-549 breast. Kind of assay: NCI tumour cell line growth inhibition, 48 h.
The molecule `CCCCN(CC)c1nc(C)nc2c1c(C)c(C)n2-c1c(C)cc(C)cc1C` yielded a TGI of 34.3 µM.

For the molecule `N#Cc1c(N)[nH]c(=S)c(C#N)c1-c1cccc(Cl)c1`, the TGI was over 100 µM.

A further assay deals with M14 melanoma. Briefly: NCI tumour cell line growth inhibition, 48 h.
For `CCCCN(CC)c1nc(C)nc2c1c(C)c(C)n2-c1c(C)cc(C)cc1C`, the TGI was 35.6 µM.

The molecule `CC1C(c2cc(C(C)(C)C)c(O)c(C(C)(C)C)c2)c2cc3c(cc2OC1N1CCOCC1)OCO3` (configuration not stated) gave a TGI of 59.3 µM.

For the molecule `N#Cc1c(N)[nH]c(=S)c(C#N)c1-c1cccc(Cl)c1`, the TGI is over 100 µM.

`CO[C@@H](C(=O)OC1C=CC2(CC1)C(=O)N(C)c1ccccc12)c1ccccc1` (some centres not stated) yielded a TGI of over 100 µM.

Another assay deals with OVCAR-3 ovarian. Kind of assay: NCI tumour cell line growth inhibition, 48 h.
`CCCCN(CC)c1nc(C)nc2c1c(C)c(C)n2-c1c(C)cc(C)cc1C` showed a TGI of 26.6 µM.

Molecule `CC1C(c2cc(C(C)(C)C)c(O)c(C(C)(C)C)c2)c2cc3c(cc2OC1N1CCOCC1)OCO3` (configuration not stated) showed a TGI of 35 µM.

Turning to `N#Cc1c(N)[nH]c(=S)c(C#N)c1-c1cccc(Cl)c1`, the TGI is over 100 µM.

`CO[C@@H](C(=O)OC1C=CC2(CC1)C(=O)N(C)c1ccccc12)c1ccccc1` (some centres not stated) returned a TGI of over 100 µM.
